In patent US11339130B1 (Blade Therapeutics, Inc., priority 2016, dated 2022) one finds IC50 data, which are given here for 14 molecules.

The target of assay [1] is T1, Human Calpain 2/NS1 (Homo sapiens, UniProt P17655).
T1 sequence (P17655 1-700): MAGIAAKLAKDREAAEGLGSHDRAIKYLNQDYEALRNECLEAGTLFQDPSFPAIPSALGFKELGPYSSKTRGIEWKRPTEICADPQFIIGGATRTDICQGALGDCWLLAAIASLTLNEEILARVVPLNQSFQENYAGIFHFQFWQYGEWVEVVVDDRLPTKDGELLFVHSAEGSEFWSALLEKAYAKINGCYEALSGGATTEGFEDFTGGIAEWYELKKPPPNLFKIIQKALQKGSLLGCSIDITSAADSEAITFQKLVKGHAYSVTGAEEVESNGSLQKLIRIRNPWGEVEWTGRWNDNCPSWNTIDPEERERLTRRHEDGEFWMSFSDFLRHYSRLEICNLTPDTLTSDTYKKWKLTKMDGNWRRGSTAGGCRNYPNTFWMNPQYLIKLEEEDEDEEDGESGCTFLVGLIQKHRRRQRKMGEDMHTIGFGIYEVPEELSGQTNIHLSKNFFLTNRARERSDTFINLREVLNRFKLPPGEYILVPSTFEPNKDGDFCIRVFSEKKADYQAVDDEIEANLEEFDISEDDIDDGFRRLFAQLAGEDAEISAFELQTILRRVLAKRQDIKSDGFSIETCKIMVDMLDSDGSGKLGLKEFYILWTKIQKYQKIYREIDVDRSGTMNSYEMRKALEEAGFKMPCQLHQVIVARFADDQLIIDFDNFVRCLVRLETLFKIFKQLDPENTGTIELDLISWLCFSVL
T1 sequence (P04632 1-268 partner): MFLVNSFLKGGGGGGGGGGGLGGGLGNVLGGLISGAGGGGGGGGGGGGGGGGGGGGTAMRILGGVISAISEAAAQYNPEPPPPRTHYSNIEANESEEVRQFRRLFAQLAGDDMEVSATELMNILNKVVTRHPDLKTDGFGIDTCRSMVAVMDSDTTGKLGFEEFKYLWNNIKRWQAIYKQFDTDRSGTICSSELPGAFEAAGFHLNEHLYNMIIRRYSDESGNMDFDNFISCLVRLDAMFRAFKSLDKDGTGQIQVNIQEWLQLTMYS
As to the kind of experiment: Calpain inhibition continuous fluorescence (FRET) assay, Human Calpain 2/NS1. It counts as biochemical. Conditions: read-out: Human Calpain 2/NS1 IC50. The method in brief:
(§1)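 Fluorescence increase from the cleaved 5-FAM/QXL 520 substrate, read at 490/520 nm, gave activity. Calcium was supplied with the substrate to activate the enzyme in situ after a 25C enzyme-inhibitor preincubation, and IC50s were fit from initial slopes.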

In assay [2] the test system is Calpain activity in SH-SY5Y cells (SBDP-150). Description: SH-SY5Y Spectrin western blot assay (SBDP-150 breakdown product, A23187-induced). In kind it is cell-based. To be noted: Homo sapiens; SH-SY5Y cells, A23187-induced SBDP-150, western blot; read-out: SH-SY5Y Spectrin IC50. (In western blotting, separated proteins are transferred to a membrane and probed.)
For assay [3], the target named is T2, Human Calpain 1/NS1 (Homo sapiens, UniProt P07384).
T2 sequence (P07384 1-714): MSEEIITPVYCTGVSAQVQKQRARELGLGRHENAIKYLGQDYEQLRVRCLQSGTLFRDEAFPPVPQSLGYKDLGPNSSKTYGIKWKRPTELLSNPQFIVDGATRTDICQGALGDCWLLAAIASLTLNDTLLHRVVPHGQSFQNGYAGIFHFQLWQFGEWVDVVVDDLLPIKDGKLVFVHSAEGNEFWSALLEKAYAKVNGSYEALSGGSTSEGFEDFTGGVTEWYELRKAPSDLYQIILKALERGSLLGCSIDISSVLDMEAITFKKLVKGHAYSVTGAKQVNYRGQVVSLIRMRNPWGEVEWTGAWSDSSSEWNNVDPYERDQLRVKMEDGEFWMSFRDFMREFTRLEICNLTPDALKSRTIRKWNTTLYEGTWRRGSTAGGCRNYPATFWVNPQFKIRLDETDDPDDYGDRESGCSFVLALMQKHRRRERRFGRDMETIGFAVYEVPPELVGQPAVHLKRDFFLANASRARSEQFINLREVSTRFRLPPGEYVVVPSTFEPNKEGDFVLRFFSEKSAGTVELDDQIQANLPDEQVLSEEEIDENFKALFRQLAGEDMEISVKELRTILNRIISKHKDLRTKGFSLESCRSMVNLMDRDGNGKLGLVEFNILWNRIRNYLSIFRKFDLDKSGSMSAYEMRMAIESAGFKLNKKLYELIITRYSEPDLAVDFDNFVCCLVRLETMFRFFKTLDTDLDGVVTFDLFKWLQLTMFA
T2 sequence (P04632 1-268 partner): T1 sequence (P04632 1-268 partner)
Description: Calpain inhibition continuous fluorescence (FRET) assay, Human Calpain 1/NS1. In kind it is biochemical. To be noted: read-out: Human Calpain 1/NS1 IC50. The procedure, abridged:
as §1

In assay [4] the test system is Calpain activity in SH-SY5Y cells. As to the kind of experiment: SH-SY5Y + AMC fluorescence assay (Suc-LLVY-AMC substrate). It counts as cell-based. Conditions: read-out: SH-SY5Y + AMC IC50.
The target in assay [5] is T3, Human Calpain 9/NS1 (Homo sapiens, UniProt O14815).
T3 sequence (O14815 1-690): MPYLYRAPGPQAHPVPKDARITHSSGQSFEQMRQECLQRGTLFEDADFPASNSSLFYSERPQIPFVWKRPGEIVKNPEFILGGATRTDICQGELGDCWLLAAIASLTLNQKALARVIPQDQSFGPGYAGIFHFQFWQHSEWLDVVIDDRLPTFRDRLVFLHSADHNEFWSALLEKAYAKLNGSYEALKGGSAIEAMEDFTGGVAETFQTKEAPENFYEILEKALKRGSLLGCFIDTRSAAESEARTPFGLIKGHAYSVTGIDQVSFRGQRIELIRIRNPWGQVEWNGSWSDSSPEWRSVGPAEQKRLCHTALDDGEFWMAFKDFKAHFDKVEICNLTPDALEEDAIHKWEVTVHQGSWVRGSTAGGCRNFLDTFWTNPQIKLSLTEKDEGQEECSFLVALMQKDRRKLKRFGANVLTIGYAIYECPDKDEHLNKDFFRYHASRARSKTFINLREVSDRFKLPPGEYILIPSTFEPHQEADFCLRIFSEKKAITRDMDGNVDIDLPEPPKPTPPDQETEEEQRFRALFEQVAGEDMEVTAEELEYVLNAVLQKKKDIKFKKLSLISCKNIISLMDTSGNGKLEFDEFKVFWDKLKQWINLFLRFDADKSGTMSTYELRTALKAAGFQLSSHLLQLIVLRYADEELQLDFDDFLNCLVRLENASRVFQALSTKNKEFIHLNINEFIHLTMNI
T3 sequence (P04632 1-268 partner): T1 sequence (P04632 1-268 partner)
As to the kind of experiment: Calpain inhibition continuous fluorescence (FRET) assay, Human Calpain 9/NS1. It counts as biochemical. To be noted: read-out: Human Calpain 9/NS1 IC50. The method in brief:
as §1

Take `CC[C@@H](C)[C@H](NC(=O)c1oc(C)nc1-c1ccccc1)C(=O)C(N)=O` [Compound 387, N-((3S,4R)-1-amino-4-methyl-1,2-dioxohexan-3-yl)-2-methyl-4-phenyloxazole-5-carboxamide]: the IC50 is less than 3 µM in assay [1]; greater than 25 µM in assay [2]; less than 3 µM in assay [3]; greater than 25 µM in assay [4]; less than 3 µM in assay [5].
Consider `Cc1cc(C)cc(C[C@H](NC(=O)c2oc(C)nc2-c2ccccc2)C(=O)C(N)=O)c1` [Compound 388, (S)—N-(4-amino-1-(3,5-dimethylphenyl)-3,4-dioxobutan-2-yl)-2-methyl-4-phenyloxazole-5-carboxamide], for which the IC50 in assay [1] is less than 3 µM; in assay [2], less than 10 µM; in assay [3] it was less than 3 µM; in assay [4], 10 to 25 µM; in assay [5], less than 3 µM.
With `Cc1nc(-c2ccccc2)c(C(=O)N[C@@H](Cc2c[nH]c3ccccc23)C(=O)C(N)=O)o1` [Compound 389, (S)—N-(4-amino-1-(1H-indol-3-yl)-3,4-dioxobutan-2-yl)-2-methyl-4-phenyloxazole-5-carboxamide], the IC50 in assay [1] was less than 3 µM; in assay [2], less than 10 µM; in assay [3], less than 3 µM; in assay [4] it was less than 10 µM; in assay [5], less than 3 µM.
For `COc1cc(C(=O)NC(Cc2ccccc2)C(=O)C(N)=O)n(-c2ccccc2)n1` (stereo not shown) [Compound 392, N-(4-amino-3,4-dioxo-1-phenylbutan-2-yl)-3-methoxy-1-phenyl-1H-pyrazole-5-carboxamide], the IC50 in assay [1] is greater than 10 µM; in assay [2], 10 to 25 µM; in assay [3] it was greater than 10 µM; in assay [4], less than 10 µM; in assay [5] it was greater than 10 µM.
`NC(=O)C(=O)C(Cc1ccccc1)NC(=O)c1oc(C2CC2)nc1-c1ccccc1` (stereo not shown) [Compound 393, N-(4-amino-3,4-dioxo-1-phenylbutan-2-yl)-2-cyclopropyl-4-phenyloxazole-5-carboxamide]: the IC50 in assay [1] is less than 3 µM; in assay [2] it was 10 to 25 µM; in assay [3], less than 3 µM; in assay [4] it was less than 10 µM; in assay [5], less than 3 µM.
As for `NC(=O)C(=O)C(Cc1ccccc1)NC(=O)c1nc(C2CC2)oc1-c1ccccc1` (stereo not shown) [Compound 394, N-(4-amino-3,4-dioxo-1-phenylbutan-2-yl)-2-cyclopropyl-5-phenyloxazole-4-carboxamide], the IC50 was less than 3 µM in assay [1]; greater than 25 µM in assay [2]; less than 3 µM in assay [3]; greater than 25 µM in assay [4]; less than 3 µM in assay [5].
In the case of `O=CC(Cc1ccccc1)NC(=O)c1cn(C(F)F)nc1-c1ccccc1` (stereo not shown) [Compound 396, 1-(difluoromethyl)-N-(1-oxo-3-phenylpropan-2-yl)-3-phenyl-1H-pyrazole-4-carboxamide], the IC50 in assay [1] was less than 3 µM; in assay [2] it was less than 10 µM; in assay [3], less than 3 µM; in assay [4] it was 10 to 25 µM; in assay [5], less than 3 µM.
As to `O=CC(Cc1ccccc1)NC(=O)c1cnoc1-c1ccccc1` (stereo not shown) [Compound 397, N-(1-oxo-3-phenylpropan-2-yl)-5-phenylisoxazole-4-carboxamide], the IC50 in assay [1] is less than 3 µM; in assay [2] it was less than 10 µM; in assay [3], less than 3 µM; in assay [4], greater than 25 µM; in assay [5], less than 3 µM.
For the molecule `Cc1cc(C(=O)NC(C=O)Cc2ccccc2)n(-c2ccccn2)n1` (stereo not shown) [Compound 398, 3-methyl-N-(1-oxo-3-phenylpropan-2-yl)-1-(pyridin-2-yl)-1H-pyrazole-5-carboxamide], the IC50 in assay [1] is less than 3 µM; in assay [2], greater than 25 µM; in assay [3] it was less than 3 µM; in assay [4], greater than 25 µM; in assay [5], less than 3 µM.
`Cc1cc(C(=O)NC(C=O)Cc2ccccc2)n(-c2ccc(C(F)(F)F)cn2)n1` (stereo not shown) [Compound 399, 3-methyl-N-(1-oxo-3-phenylpropan-2-yl)-1-(5-(trifluoromethyl)pyridin-2-yl)-1H-pyrazole-5-carboxamide]: the IC50 in assay [1] is less than 3 µM; in assay [2], greater than 25 µM; in assay [3] it was less than 3 µM; in assay [4], greater than 25 µM; in assay [5], 3 to 10 µM.
For `Cc1cc(C(=O)NC(C=O)Cc2ccccc2)n(-c2cccc(COCc3ccccc3)c2)n1` (stereo not shown) [Compound 400, 1-(3-((benzyloxy)methyl)phenyl)-3-methyl-N-(1-oxo-3-phenylpropan-2-yl)-1H-pyrazole-5-carboxamide], the IC50 in assay [1] was less than 3 µM; in assay [2] it was greater than 25 µM; in assay [3], less than 3 µM; in assay [4] it was greater than 25 µM; in assay [5] it was less than 3 µM.
Take `O=CC(Cc1ccccc1)NC(=O)c1nsnc1-c1ccccc1` (stereo not shown) [Compound 401, N-(1-oxo-3-phenylpropan-2-yl)-4-phenyl-1,2,5-thiadiazole-3-carboxamide]: the IC50 is less than 3 µM in assay [1]; less than 10 µM in assay [2]; less than 3 µM in assay [3]; greater than 25 µM in assay [4]; less than 3 µM in assay [5].
For the molecule `Cc1nc(-c2ccccc2F)c(C(=O)NC(C=O)Cc2ccccc2)o1` (stereo not shown) [Compound 402, 4-(2-fluorophenyl)-2-methyl-N-(1-oxo-3-phenylpropan-2-yl)oxazole-5-carboxamide], the IC50 is less than 3 µM in assay [1]; 10 to 25 µM in assay [2]; less than 3 µM in assay [3]; greater than 25 µM in assay [4]; less than 3 µM in assay [5].
With `COc1cccc(-c2nn(C)cc2C(=O)NC(Cc2ccccc2)C(=O)C(N)=O)c1` (stereo not shown) [Compound 407, N-(4-amino-3,4-dioxo-1-phenylbutan-2-yl)-3-(3-methoxyphenyl)-1-methyl-1H-pyrazole-4-carboxamide], the IC50 in assay [1] was less than 3 µM; in assay [2] it was 10 to 25 µM; in assay [3], less than 3 µM; in assay [4], 10 to 25 µM; in assay [5], less than 3 µM.
